Patent US11702418B2, “SOS1 inhibitors” (priority 2019, dated 2023)

How the values were obtained:
[1] = target: recombinant human SOS1 polypeptide (amino acids 560-1049) (Homo sapiens (Human), UniProt Q07889); test: biochemical; format: binding; details: HTRF displacement, Cy5 labelled tracer, Morrison equation for competitive binding; read-out: Ki, Inhibition of Labeled Tracer Binding to SOS1
Description: The ability of a compound of Formula (I) to bind to SOS1 was measured using a HTRF displacement assay. […] After a 1-hour incubation at room temperature, the HTRF signal was measured using Clairostar plate reader (BMG Labtech) according to the manufacturer's instructions. Excitation filter EX-TR was used, and emission 1 was detected at 650-610 nm and emission 2 detected at 620-610 nm. The HTRF ratio was calculated using the formula: [emission 1/emission 2]*10000.
Background signals were calculated from well with a 10 μM inhibitor, known to inhibit 100% at that concentration. The background subtracted signals were converted to % binding relative to DMSO controls. Data were analyzed using XLFIT software (IDBS) using a Morrison equation for competitive binding and Ki's were generated compound of Formula (I).

[2] = tested on: pERK in Kasuma-1 (Kasumi) cells (NF-1 mutant); test: pERK inhibition in NF-1 mutant Kasumi cells (Example F); format: cell-based; details: 1 h, read-out: IC50, pERK inhibition
Description: (§2) The formaldehyde was discarded from the plates and 150 μL of ice-cold methanol was added to permeabilize the cells for 10 minutes at −20° C. The methanol was discarded from each of the plates and any liquid remaining in the plate by tapping the plate against paper towels. […] The plates were incubated overnight at 4° C. on a shaker.
(§3) On Assay day 2, the primary antibody solution was removed. […] The secondary antibody solution as removed and each plate was washed with PBST 3× times. Any liquid remaining was discarded and the plate was imaged using the Licor Odyssey machine according to the manufacturer's instruction, using a set focus length at 3 mm and both 800 nm and 700 nm filters. The GAPDH normalized scan values for each well were divided by the average of vehicle wells to get the % of pERK inhibition. The IC50 values were then calculated with the Graph pad Prism software.

pERK in MKN1 cells = test: cells; format: cell-based; details: Homo sapiens, MKN-1, pERK inhibition, In-Cell Western; MKN1 or H358 cells (Table 24 does not say which); 0.5-1 hour incubation; read-out: IC50
[3] = tested on: pERK in LXF289 cells (SOS1 N233Y); test: pERK inhibition in SOS1 N233Y mutant LXF289 cells (Example E); format: cell-based; details: Homo sapiens, LXF-289, LXF289 cell line, 1 hour with compound
Excerpt: (§1) Three cell lines harboring SOS1 N233Y activation mutations, LXF289 (DSMZ, Leibniz Institute, Germany) RL95-2 (ATCC CRL-1671); and OCI AML-5 (DSMZ, Leibniz Institute, Germany) were used in the studies.

[4] = tested on: pERK in RL95-2 cells (SOS1 N233Y); test: pERK inhibition in SOS1 N233Y mutant RL95-2 cells (Example E); format: cell-based; details: Homo sapiens, RL95-2 cell line, 1 hour with compound
Excerpt: as §1

[5] = tested on: pERK in OCI AML-5 cells (SOS1 N233Y); test: pERK inhibition in SOS1 N233Y mutant OCI AML-5 cells (Example E); format: cell-based; details: Homo sapiens, OCI AML-5 cell line, 1 hour with compound
Excerpt: as §1

[6] = tested on: pERK in NCI-H1435 cells (NF-1 mutant); test: pERK inhibition in NF-1 mutant NCI-H1435 cells (Example F); format: cell-based; details: NCI-H1435, 1 h, read-out: IC50, pERK inhibition
Description: as §2, §3

Sequence of recombinant human SOS1 polypeptide (amino acids 560-1049) (Q07889 560-1049): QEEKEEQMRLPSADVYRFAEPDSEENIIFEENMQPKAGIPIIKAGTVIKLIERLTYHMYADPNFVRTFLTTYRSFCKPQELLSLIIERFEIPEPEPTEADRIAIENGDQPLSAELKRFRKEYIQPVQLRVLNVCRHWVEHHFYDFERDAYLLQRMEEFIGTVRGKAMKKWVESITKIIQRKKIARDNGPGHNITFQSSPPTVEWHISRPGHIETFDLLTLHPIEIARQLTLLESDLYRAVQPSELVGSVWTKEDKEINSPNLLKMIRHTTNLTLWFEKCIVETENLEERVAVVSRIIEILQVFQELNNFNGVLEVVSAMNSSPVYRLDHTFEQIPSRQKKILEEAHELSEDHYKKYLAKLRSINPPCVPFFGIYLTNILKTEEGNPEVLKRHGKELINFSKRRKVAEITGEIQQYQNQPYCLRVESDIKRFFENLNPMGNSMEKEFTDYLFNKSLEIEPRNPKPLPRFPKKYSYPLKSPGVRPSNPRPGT

Cc1c([C@@H](C)Nc2nnc(C)c3ccc(N4CCn5nccc5C4)cc23)cccc1C(F)(F)F [Example 6-10, (R)-7-(6,7-dihydropyrazolo[1,5-a]pyrazin-5(4H)-yl)-4-methyl-N-(1-(2-methyl-3-(trifluoromethyl)phenyl)ethyl)phthalazin-1-amine]
Ki [1]: < 0.01 nM | IC50 [2]: 902 nM | IC50 (pERK in MKN1 cells): 271 nM | IC50 [3]: 294 nM | IC50 [4]: 214 nM | IC50 [5]: 333 nM | IC50 [6]: 542 nM

Cc1c([C@@H](C)Nc2nnc(C)c3ccc(N4CCN(C(=O)C5CC5)CC4)cc23)cccc1C(F)(F)F [Example 6-11, (R)-cyclopropyl(4-(1-methyl-4-((1-(2-methyl-3-(trifluoromethyl)phenyl)ethyl)amino)phthalazin-6-yl)piperazin-1-yl)methanone]
Ki [1]: 9.1 nM | IC50 [2]: 97 nM | IC50 (pERK in MKN1 cells): 31 nM | IC50 [3]: 41 nM | IC50 [4]: 20 nM | IC50 [5]: 32 nM | IC50 [6]: 65 nM

CNC1CCN(c2ccc3c(C)nnc(N[C@H](C)c4cccc(C(F)(F)F)c4C)c3c2)CC1 [Example 10-7, (R)-4-methyl-N-(1-(2-methyl-3-(trifluoromethyl)phenyl)ethyl)-7-(4-(methylamino)piperidin-1-yl)phthalazin-1-amine]
Ki [1]: 0.07 nM | IC50 (pERK in MKN1 cells): 22 nM | IC50 [6]: 87 nM

Cc1c([C@@H](C)Nc2nnc(C)c3ccc(N4CCN(C(=O)C5COC5)CC4)cc23)cccc1C(F)(F)F [Example 11-1, (R)-(4-(1-methyl-4-((1-(2-methyl-3-(trifluoromethyl)phenyl)ethyl)amino)phthalazin-6-yl)piperazin-1-yl)(oxetan-3-yl)methanone]
Ki [1]: 0.01 nM | IC50 (pERK in MKN1 cells): 10 nM | IC50 [6]: 6 nM

Cc1c([C@@H](C)Nc2nnc(C)c3ccc(N4CCN(C(=O)[C@@H]5CCOC5)CC4)cc23)cccc1C(F)(F)F [Example 11-4, (4-(1-methyl-4-(((R)-1-(2-methyl-3-(trifluoromethyl)phenyl)ethyl)amino)phthalazin-6-yl)piperazin-1-yl)((R)-tetrahydrofuran-3-yl)methanone]
Ki [1]: 0.01 nM | IC50 (pERK in MKN1 cells): 25 nM | IC50 [6]: 19 nM

Cc1c([C@@H](C)Nc2nnc(C)c3ccc(O[C@H]4CCNC4)cc23)cccc1C(F)(F)F [Example 7-3, 4-methyl-N-((R)-1-(2-methyl-3-(trifluoromethyl)phenyl)ethyl)-7-(((S)-pyrrolidin-3-yl)oxy)phthalazin-1-amine]
Ki [1]: 0.32 nM | IC50 (pERK in MKN1 cells): 28 nM | IC50 [6]: 55 nM

Cc1nc(C)n2c1CN(c1ccc3c(C)nnc(N[C@H](C)c4cccc(C(F)(F)F)c4C)c3c1)CC2 [Example 10-11, (R)-7-(1,3-dimethyl-5,6-dihydroimidazo[1,5-a]pyrazin-7(8H)-yl)-4-methyl-N-(1-(2-methyl-3-(trifluoromethyl)phenyl)ethyl)phthalazin-1-amine]
Ki [1]: 0.01 nM | IC50 (pERK in MKN1 cells): 22 nM | IC50 [6]: 63 nM
